In patent publication US20230348450A1, “CARBOXYLIC ACID-CONTAINING COMPOUNDS AS MODULATORS OF BIS-PHOSPHOGLYCERATE MUTASE FOR THE TREATMENT OF SICKLE CELL DISEASE” (Genzyme Corporation, priority 2020, published 2023):

Key:
human red blood cells = assay: Human Cell-Based Assay; conditions: Erythrocyte; human whole blood suspension, 37° C., 24 h; metabolites (2,3-BPG, ATP) by LC/MS; read-out: hRBC EC50
Experimental: Example B3. Human Cell-Based Assay
The following materials were used in this assay: DMSO; Hemox buffer (30 mM TES, 135 mM NaCl, 5 mM KCl, pH 7.4); Inosine (100 mM in hemox buffer); Glucose (1 M in water); human red blood cells; LC/MS Optima grade methanol; LC/MS Optima grade water; and Incubation buffer (30 mM TES, 135 mM NaCl, 5 mM KCl, 50 mM inosine, 20 mM glucose pH 7.4).
Test compounds were loaded onto a 96-well plate (final concentration of DMSO was 1%). 10 mL whole blood was resuspended with an equivalent amount of 2× incubation buffer to make 25% het & 50% plasma solution. The final solution contains 10 mM glucose and 25 mM inosine. The blood suspension (100 uL) was added to the wells of the plate. The plate was covered with an adhesive foil cover and plastic lid, and incubated at 37° C. for 24 h. The samples were extracted through an SPE column and the metabolites (2,3-BPG, ATP) were analyzed by LC/MS.

hBPGM = hBPGM (Homo sapiens (Human), UniProt P07738); assay: BPGM Synthase Assay; type: biochemical; conditions: Table 6 additional results; read-out: huBPGM: synthase Enzyme IC50
Method in brief: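 BPGM (5 nM) with GAPDH (0.4 U/mL) was incubated with compound for 30 min at RT in pH 7.4 Tris buffer with 3.23 mM KH2PO4 and 1 mM DTT. Reaction ran 60 min with NAD, 3PG and GAP (substrate solution 2 mM, 20 μM and 800 μM). After koningic acid stop, NADH fluorescence was read, then resorufin from diaphorase/resazurin coupling.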

[1] = biological target: human Bisphosphoglycerate mutase (hBPGM) (Homo sapiens (Human), UniProt P07738); assay: BPGM Phosphatase Assay; type: biochemical; conditions: Table 6 additional results; read-out: huBPGM: phosphatase Enzyme EC50
Experimental: Solutions of the test compounds were then added to the plate and the DMSO content was normalized across the plate. The plate was incubated at RT for 15 min. Next, the substrate 2,3-BPG (5 μL) was added to all the wells, and the plate was sealed and incubated for 24 hr at RT. After incubation, BIOMOL green dye (40 μL) was added to all the wells, the plate was shaken to mix, and the plate was incubated at RT for 20-30 min.

Sequence of hBPGM (P07738 whole entry, looked up): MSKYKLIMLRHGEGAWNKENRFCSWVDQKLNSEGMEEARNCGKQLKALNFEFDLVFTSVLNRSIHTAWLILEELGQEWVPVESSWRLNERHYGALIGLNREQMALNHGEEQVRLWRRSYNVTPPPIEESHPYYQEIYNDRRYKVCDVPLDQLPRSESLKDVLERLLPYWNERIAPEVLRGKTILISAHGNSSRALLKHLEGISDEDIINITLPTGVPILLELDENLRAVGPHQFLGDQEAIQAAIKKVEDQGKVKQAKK
Sequence of human Bisphosphoglycerate mutase (hBPGM) (P07738 whole entry): as the sequence (P07738 whole entry, looked up) above

EC50 (human red blood cells) [µM] | SMILES | IC50 (hBPGM) [nM] | EC50 [1] [nM]
> 100 | Cc1nc(COc2ncccn2)sc1-c1cccc(-c2ccc(S(=O)(=O)CC(=O)O)cc2)n1 [compound 2, 2-[4-[6-[4-methyl-2-(pyrimidin-2-yloxymethyl)thiazol-5-yl]-2-pyridyl]phenyl]sulfonylacetic Acid] |  | 
23.5 | Cc1nc(COc2ccccn2)sc1-c1cccc(-c2ccc(C(=O)O)c(O)c2)c1 [compound 4, 2-hydroxy-4-[3-[4-methyl-2-(2-pyridyloxymethyl)thiazol-5-yl]phenyl]benzoic Acid] |  | 
 | Cc1nc(COc2ncccn2)sc1-c1csc(-c2cc(O)c(C(=O)O)cc2F)n1 [Example 137] | 28 | 20
 | Cc1nc(CNC(=O)C2CCNCC2)sc1-c1csc(-c2cc(O)c(C(=O)O)cc2F)n1 [Example 125] | 410 | 340
 | Cc1nc(Cn2cccc(C#N)c2=O)sc1-c1cccc(-c2ccc(C(=O)O)c(O)c2)c1 [Example 100] | 560 | 420
 | Cc1nc(COc2cccc(C#N)n2)sc1-c1cccc(-c2ccc(C(=O)O)c(O)c2)c1 [Example 256] | 880 | 70
 | Cc1nc(C(C)NC(=O)c2cccnn2)sc1-c1csc(-c2cc(O)c(C(=O)O)cc2F)n1 (stereo not drawn) [Example 151] | 65 | 70
 | Cc1nc(CNc2ccn(C)n2)sc1-c1csc(-c2cc(O)c(C(=O)O)cc2F)n1 [Example 221] | 90 | 35
 | Cc1nc(Cn2cccn2)sc1-c1cccc(-c2cc(O)c(C(=O)O)cc2F)n1 [Example 223] | 150 | 190
 | COC(=O)NCc1nc(C)c(-c2csc(-c3cc(O)c(C(=O)O)cc3F)c2)s1 [Example 161] | 59 | 79
 | Cc1cccnc1OCc1nc(C)c(-c2cccc(-c3ccc(C(=O)O)c(O)c3)c2)s1 [Example 86] | 1500 | 200
 | Cc1nc(CN2CCCC2=O)sc1-c1cccc(-c2ccc(C(=O)O)c(O)c2)c1 [Example 260] | 1400 | 5600
 | Cc1nc(Cc2cccnc2)sc1-c1cccc(-c2cc(O)c(C(=O)O)cc2F)n1 [Example 217] | 110 | 120
 | Cc1ccnc(OCc2nc(C)c(-c3csc(-c4cc(O)c(C(=O)O)cc4F)n3)s2)n1 [Example 133] | 50 | 80
 | COC(=O)N[C@@H](C)c1nc(C)c(-c2csc(-c3cc(O)c(C(=O)O)cc3F)n2)s1 [Example 177] | 59 | 160
 | Cc1nc(CN2CCOC2=O)sc1-c1cccc(-c2ccc(C(=O)O)c(O)c2)c1 [Example 263] | 1300 | 1400
 | Cc1nc(CNCC(=O)N(C)C)sc1-c1csc(-c2cc(O)c(C(=O)O)cc2F)n1 [Example 169] | 480 | 110
 | Cc1nc(CN)sc1-c1csc(-c2cc(O)c(C(=O)O)cc2F)n1 [Example 243] | 830 | 990
 | Cc1nc(CNC2CCOC2)sc1-c1cccc(-c2ccc(C(=O)O)cc2)c1 (stereo not drawn) [Example 50] | > 25000 | > 25000
 | Cc1nc(Cc2ccn(C)n2)sc1-c1csc(-c2ccc(C(=O)O)c(O)c2)c1 [Example 216] | 190 | 200
 | Cc1nc(Cc2cccnc2)sc1-c1cccc(-c2cc(O)c(C(=O)O)cc2F)c1 [Example 99] | 400 | 280
 | Cc1nc(CN)sc1-c1csc(-c2ccc(C(=O)O)c(O)c2)n1 [Example 230] | 4400 | > 25000
 | COC(=O)NCc1nc(C)c(-c2csc(-c3cc(O)c(C(=O)O)cc3Cl)n2)s1 [Example 211] | 100 | 190
 | Cc1cccc(Cc2nc(C)c(-c3cccc(-c4ccc(C(=O)O)c(O)c4)c3)s2)n1 [Example 279] | 2600 | 6900
 | Cc1nc(CNC(=O)c2ccccn2)sc1-c1csc(-c2cc(O)c(C(=O)O)cc2F)n1 [Example 200] | 73 | 270
